The text below walks through data of patent US10532995B2, “Substituted pyrazole compounds as serine protease inhibitors” (VERSEON CORPORATION, priority 2015, dated 2020).

The target in the assay is T1, Human thrombin (Homo sapiens, UniProt P00734).
T1 construct: purchased Haematologic Technologies Inc
Briefly: Thrombin protease activity inhibition, chromogenic substrate S-2238. The format is biochemical. The conditions noted are these: 3 nM thrombin, 125 μM S-2238, 10 min pre-incubation, RT. A digest of the protocol: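 Thrombin at 3 nM final in 0.05 M Tris pH 7.4, 0.015 M NaCl, 0.01% PEG-8000, at room temperature; compounds as ten-point three-fold dilutions.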
`C=CCOC(=O)N1CCN(S(=O)(=O)N2CCOCC2)CC1c1cc(NCc2ccc(Cl)s2)[nH]n1` (stereo not shown) [Entry 250, prop-2-en-1-yl 2-(5-[(5-chlorothiophen-2-yl)methyl]amino-1H-pyrazol-3-yl)-4-(morpholine-4-sulfonyl)piperazine-1-carboxylate] returned a half-inhibitory concentration (IC50) of more than 100 µM.

The compound `C=CCOC(=O)N1CCN(C(=O)CN2CCOCC2)CC1c1cc(NCc2ccc(Cl)s2)[nH]n1` (stereo not shown) [Entry 251, prop-2-en-1-yl 2-(5-[(5-chlorothiophen-2-yl)methyl]amino-1H-pyrazol-3-yl)-4-[2-(morpholin-4-yl)acetyl]piperazine-1-carboxylate] yielded an IC50 of more than 100 µM.

On to `C=CCOC(=O)N1CCN(S(C)(=O)=O)CC1c1cc(NCc2ccc(Cl)s2)[nH]n1` (stereo not shown) [Entry 252, prop-2-en-1-yl 2-(5-[(5-chlorothiophen-2-yl)methyl]amino-1H-pyrazol-3-yl)-4-methanesulfonylpiperazine-1-carboxylate], for which the IC50 is more than 100 µM.

As for `C=CCOC(=O)N1CCCC1c1cc(NCc2ccc(Cl)s2)[nH]n1` (stereo not shown) [Entry 253, prop-2-en-1-yl 2-(5-[(5-chlorothiophen-2-yl)methyl]amino-1H-pyrazol-3-yl)pyrrolidine-1-carboxylate], the half-maximal inhibitory concentration (IC50) was more than 100 µM.

`C=CCOC(=O)N1C2CCC1CC(c1cc(NCc3ccc(Cl)s3)n(C(=O)C(C)(C)C)n1)C2` (stereo not shown) [Entry 254, prop-2-en-1-yl 3-(5-[(5-chlorothiophen-2-yl)methyl]amino-1-(2,2-dimethylpropanoyl)-1H-pyrazol-3-yl)-8-azabicyclo[3.2.1]octane-8-carboxylate] yielded a half-inhibitory concentration (IC50) of less than 0.1 µM.

`C=CCOC(=O)N1CC(c2cc(NCc3ccc(Cl)s3)n(C(=O)C(C)(C)C)n2)C1` [Entry 255, prop-2-en-1-yl 3-(5-[(5-chlorothiophen-2-yl)methyl]amino-1-(2,2-dimethylpropanoyl)-1H-pyrazol-3-yl)azetidine-1-carboxylate] came in with an IC50 of less than 0.1 µM.

Turning to `C=CCOC(=O)N1CCC(c2cc(NCc3ccc(Cl)s3)n(C(=O)C(C)(C)C)n2)C1` (stereo not shown) [Entry 256, prop-2-en-1-yl 3-(5-[(5-chlorothiophen-2-yl)methyl]amino-1-(2,2-dimethylpropanoyl)-1H-pyrazol-3-yl)pyrrolidine-1-carboxylate], the IC50 was less than 0.1 µM.

Regarding `C=CCOC(=O)N1C2CCC1CC(c1cc(NCc3ccc(Cl)s3)[nH]n1)C2` (stereo not shown) [Entry 257, prop-2-en-1-yl 3-(5-[(5-chlorothiophen-2-yl)methyl]amino-1H-pyrazol-3-yl)-8-azabicyclo[3.2.1]octane-8-carboxylate], the IC50 was in the range of 10 to 100 µM.

`C=CCOC(=O)N1CC(c2cc(NCc3ccc(Cl)s3)[nH]n2)C1` [Entry 258, prop-2-en-1-yl 3-(5-[(5-chlorothiophen-2-yl)methyl]amino-1H-pyrazol-3-yl)azetidine-1-carboxylate]: the IC50 fell in the range of 10 to 100 µM.

`C=CCOC(=O)N1CCC(c2cc(NCc3ccc(Cl)s3)[nH]n2)C1` (stereo not shown) [Entry 259, prop-2-en-1-yl 3-(5-[(5-chlorothiophen-2-yl)methyl]amino-1H-pyrazol-3-yl)pyrrolidine-1-carboxylate] registered a 50% inhibitory concentration (IC50) of more than 100 µM.

The compound `C=CCOC(=O)N1CCCC(c2cc(NCc3ccc(Cl)s3)n(C(=O)c3cscn3)n2)CC1` (stereo not shown) [Entry 260, prop-2-en-1-yl 4-(5-[(5-chlorothiophen-2-yl)methyl]amino-1-(1,3-thiazole-4-carbonyl)-1H-pyrazol-3-yl)azepane-1-carboxylate] displayed a half-inhibitory concentration (IC50) of less than 0.1 µM.

Take `C=CCOC(=O)N1CCCC(c2cc(NCc3ccc(Cl)s3)n(C(=O)C(C)(C)C)n2)CC1` (stereo not shown) [Entry 261, prop-2-en-1-yl 4-(5-[(5-chlorothiophen-2-yl)methyl]amino-1-(2,2-dimethylpropanoyl)-1H-pyrazol-3-yl)azepane-1-carboxylate]: the IC50 was less than 0.1 µM.

`C=CCOC(=O)N1CCC(c2cc(NCc3ccc(Cl)s3)n(C(=O)C(C)(C)C)n2)CC1` [Entry 262, prop-2-en-1-yl 4-(5-[(5-chlorothiophen-2-yl)methyl]amino-1-(2,2-dimethylpropanoyl)-1H-pyrazol-3-yl)piperidine-1-carboxylate] returned an IC50 of less than 0.1 µM.

Compound `C=CCOC(=O)N1CCC(c2nn(C(=O)C(C)(C)C)c(NCc3ccc(Cl)s3)c2F)CC1` [Entry 263, prop-2-en-1-yl 4-(5-[(5-chlorothiophen-2-yl)methyl]amino-1-(2,2-dimethylpropanoyl)-4-fluoro-1H-pyrazol-3-yl)piperidine-1-carboxylate] returned a half-maximal inhibitory concentration (IC50) of less than 0.1 µM.

Take `C=CCOC(=O)N1CCC(c2nn(C(=O)C(C)(C)C)c(NCc3ccc(Cl)s3)c2C)CC1` [Entry 264, prop-2-en-1-yl 4-(5-[(5-chlorothiophen-2-yl)methyl]amino-1-(2,2-dimethylpropanoyl)-4-methyl-1H-pyrazol-3-yl)piperidine-1-carboxylate]: the concentration for half-maximal inhibition (IC50) was less than 0.1 µM.

`C=CCOC(=O)N1CCCC(c2cc(NCc3ccc(Cl)s3)[nH]n2)CC1` (stereo not shown) [Entry 265, prop-2-en-1-yl 4-(5-[(5-chlorothiophen-2-yl)methyl]amino-1H-pyrazol-3-yl)azepane-1-carboxylate] came in with an IC50 of more than 100 µM.

In turn, `C=CCOC(=O)N1CCC(c2cc(NCc3ccc(Cl)s3)[nH]n2)CC1` [Entry 266, prop-2-en-1-yl 4-(5-[(5-chlorothiophen-2-yl)methyl]amino-1H-pyrazol-3-yl)piperidine-1-carboxylate] registered a 50% inhibitory concentration (IC50) of more than 100 µM.

`C=CCOC(=O)N1CCC(c2nn(C(=O)C(C)(C)C)c(NCc3ccc(Cl)s3)c2C#N)CC1` [Entry 267, prop-2-en-1-yl 4-(5-[(5-chlorothiophen-2-yl)methyl]amino-4-cyano-1-(2,2-dimethylpropanoyl)-1H-pyrazol-3-yl)piperidine-1-carboxylate] registered a half-inhibitory concentration (IC50) of less than 0.1 µM.

The compound `C=CCOC(=O)N1CCC(c2n[nH]c(NCc3ccc(Cl)s3)c2C#N)CC1` [Entry 268, prop-2-en-1-yl 4-(5-[(5-chlorothiophen-2-yl)methyl]amino-4-cyano-1H-pyrazol-3-yl)piperidine-1-carboxylate] gave an IC50 of 1 to 10 µM.

The compound `C=CCOC(=O)N1CCC(c2n[nH]c(NCc3ccc(Cl)s3)c2F)CC1` [Entry 269, prop-2-en-1-yl 4-(5-[(5-chlorothiophen-2-yl)methyl]amino-4-fluoro-1H-pyrazol-3-yl)piperidine-1-carboxylate] displayed an IC50 of more than 100 µM.

Compound `C=CCOC(=O)N1CCC(c2nn(C(=O)c3cscn3)c(NCc3ccc(Cl)s3)c2C)CC1` [Entry 270, prop-2-en-1-yl 4-(5-[(5-chlorothiophen-2-yl)methyl]amino-4-methyl-1-(1,3-thiazole-4-carbonyl)-1H-pyrazol-3-yl)piperidine-1-carboxylate] registered an IC50 of less than 0.1 µM.

On to `C=CCOC(=O)N1CCC(c2n[nH]c(NCc3ccc(Cl)s3)c2C)CC1` [Entry 271, prop-2-en-1-yl 4-(5-[(5-chlorothiophen-2-yl)methyl]amino-4-methyl-1H-pyrazol-3-yl)piperidine-1-carboxylate], for which the IC50 was more than 100 µM.

The compound `COc1ccccc1C(=O)n1nc(C2(C)CCCN2C(=O)OC(C)(C)C)cc1NCc1ccc(Cl)s1` (stereo not shown) [Entry 272, tert-butyl 2-(5-[(5-chlorothiophen-2-yl)methyl]amino-1-(2-methoxybenzoyl)-1H-pyrazol-3-yl)-2-methylpyrrolidine-1-carboxylate] showed an IC50 of 1 to 10 µM.

`COc1ccccc1C(=O)n1nc(C2CCCN2C(=O)OC(C)(C)C)cc1NCc1ccc(Cl)s1` (stereo not shown) [Entry 273, tert-butyl 2-(5-[(5-chlorothiophen-2-yl)methyl]amino-1-(2-methoxybenzoyl)-1H-pyrazol-3-yl)pyrrolidine-1-carboxylate] had a concentration for half-maximal inhibition (IC50) of 1 to 10 µM.

Consider `CC(C)(C)OC(=O)N1CCCC1(C)c1cc(NCc2ccc(Cl)s2)n(C(=O)C(C)(C)CO)n1` (stereo not shown) [Entry 274, tert-butyl 2-(5-[(5-chlorothiophen-2-yl)methyl]amino-1-(3-hydroxy-2,2-dimethylpropanoyl)-1H-pyrazol-3-yl)-2-methylpyrrolidine-1-carboxylate], for which the IC50 is 0.1 to 1 µM.

`CC(C)(C)OC(=O)N1CCCC1(C)c1cc(NCc2ccc(Cl)s2)n(C(=O)C2(C)CCOCC2)n1` (stereo not shown) [Entry 275, tert-butyl 2-(5-[(5-chlorothiophen-2-yl)methyl]amino-1-(4-methyloxane-4-carbonyl)-1H-pyrazol-3-yl)-2-methylpyrrolidine-1-carboxylate] yielded an IC50 of 1 to 10 µM.

`CC(C)(C)OC(=O)N1CCCC1(C)c1cc(NCc2ccc(Cl)s2)n(C(=O)c2ccsc2)n1` (stereo not shown) [Entry 276, tert-butyl 2-(5-[(5-chlorothiophen-2-yl)methyl]amino-1-(thiophene-3-carbonyl)-1H-pyrazol-3-yl)-2-methylpyrrolidine-1-carboxylate] showed an IC50 of more than 100 µM.

Compound `CC(C)(C)OC(=O)N1CCCC1c1cc(NCc2ccc(Cl)s2)[nH]n1` (stereo not shown) [Entry 277, tert-butyl 2-(5-[(5-chlorothiophen-2-yl)methyl]amino-1H-pyrazol-3-yl)pyrrolidine-1-carboxylate] came in with an IC50 of more than 100 µM.

`CC(C)(C)OC(=O)N1CCCC(C)(c2cc(NCc3ccc(Cl)s3)n(C(=O)C(C)(C)C)n2)C1` (stereo not shown) [Entry 278, tert-butyl 3-(5-[(5-chlorothiophen-2-yl)methyl]amino-1-(2,2-dimethylpropanoyl)-1H-pyrazol-3-yl)-3-methylpiperidine-1-carboxylate] showed a concentration for half-maximal inhibition (IC50) of less than 0.1 µM.

The compound `CC(C)(C)OC(=O)N1CCCC(c2cc(NCc3ccc(Cl)s3)n(C(=O)C(C)(C)C)n2)C1` (stereo not shown) [Entry 279, tert-butyl 3-(5-[(5-chlorothiophen-2-yl)methyl]amino-1-(2,2-dimethylpropanoyl)-1H-pyrazol-3-yl)piperidine-1-carboxylate] had an IC50 of less than 0.1 µM.

As for `COc1ccccc1C(=O)n1nc(C2(C)CCCN(C(=O)OC(C)(C)C)C2)cc1NCc1ccc(Cl)s1` (stereo not shown) [Entry 280, tert-butyl 3-(5-[(5-chlorothiophen-2-yl)methyl]amino-1-(2-methoxybenzoyl)-1H-pyrazol-3-yl)-3-methylpiperidine-1-carboxylate], the IC50 was less than 0.1 µM.
